Each block holds one molecule with its values, some of them ahead of it.
Experiments:
[1] = Drug uptake in mouse brain up to 20 mg/kg/day, po after 30 to 60 mins by LC/MS analysis relative to plasma; format: ADME, organism-based
[2] = Drug uptake in mouse CSF up to 20 mg/kg/day, po after 30 to 60 mins by LC/MS analysis relative to brain; format: ADME, organism-based, Cerebrospinal fluid; conditions: in vivo
[3] = Drug uptake in mouse brain at 5 mg/kg/day, po after 30 to 60 mins by LC/MS analysis; format: ADME, organism-based; conditions: in vivo, read-out: Drug uptake
[4] = Ratio of drug level in plasma to CSF in Alzheimer's disease patient at 50 to 125 mg, po qd for 4 weeks measured 23 to 28 hrs post last dose by LC/MS analysis; format: ADME, organism-based; conditions: human, in vivo
[5] = Ratio of drug level in brain to plasma in rat; format: ADME; conditions: read-out: BPR
MDR1 [6] = experiment: Efflux ratio of apparent permeability in MDCK cells expressing human MDR1; format: ADME, cell-based, Canis lupus familiaris; conditions: dog
[7] = Unbound Cmax in C57BL/6J mouse brain at 10 mg/kg, sc; format: ADME, organism-based; conditions: in vivo
Mus musculus [8] = experiment: In vivo target occupancy at CK1delta in C57BL/6J mouse CNS at 10 mg/kg, sc; format: functional
Mus musculus [9] = experiment: In vivo target occupancy at CK1epsilon in C57BL/6J mouse CNS at 10 mg/kg, sc; format: functional
[10] = Efflux ratio of apparent permeability in human Caco2 cells by HPLC-MS/MS analysis; format: ADME, cell-based; conditions: Caco-2
[11] = Ratio of drug level in brain to plasma in Sprague-Dawley rat at 5 mg/kg, po after 3 hrs by LC-MS/MS analysis; format: ADME, organism-based; conditions: read-out: BPR
[12] = Ratio of drug level in brain to plasma in C57BL6 mouse at 30 mg/kg, po after 1 hr by LC/MS analysis; format: ADME, organism-based; conditions: read-out: BPR
[13] = Ratio of AUC (0 to 3 hrs) in FVB mouse brain to plasma at 1 mg/kg, iv by LC-MS/MS analysis; format: ADME, organism-based; conditions: read-out: Ratio AUC
Rattus norvegicus [14] = experiment: In vivo inhibition of Plk2-mediated phosphorylation of alpha-synuclein in Sprague-Dawley rat brain assessed as reduction in pS129-alpha-synuclein levels at 100 mg/kg, po administered as single dose after 6 hrs by sandwich ELISA relative to control; format: functional
Rattus norvegicus [15] = experiment: In vivo inhibition of Plk2-mediated phosphorylation of alpha-synuclein in Sprague-Dawley rat brain assessed as reduction in pS129-alpha-synuclein levels at 200 mg/kg, po administered as single dose after 6 hrs by sandwich ELISA relative to control; format: functional
[16] = Ratio of drug level in Sprague-Dawley rat brain to plasma at 100 mg/kg, po administered as single dose after 6 hrs by LC-MS/MS analysis; format: ADME, organism-based; conditions: read-out: BPR
[17] = Ratio of drug level in Sprague-Dawley rat brain to plasma at 200 mg/kg, po administered as single dose after 6 hrs by LC-MS/MS analysis; format: ADME, organism-based; conditions: read-out: BPR
MDR1 [18] = experiment: Efflux ratio of apparent permeability in MDCK2-MDR1; format: ADME, cell-based, Canis lupus familiaris; conditions: dog, MDCK-MDR1

Structure (SMILES): CN1CCN(CCOc2cc(OC3CCOCC3)c3c(Nc4c(Cl)ccc5c4OCO5)ncnc3c2)CC1 [SARACATINIB]
- Drug uptake [1]: 50%
- Drug uptake [2]: 35%
- concentration [3]: 50 nM
- Ratio [4]: 0.4

Structure (SMILES): CN(CCNc1ccn2ncc(-c3ccc(C(N)=O)cc3)c2n1)C(=O)OC(C)(C)C
- Kp [5]: 0.007

Structure (SMILES): CN1CCN(c2cc(-c3ccncc3)c(-c3ccc4ccccc4c3)nn2)CC1 [MW-150]
- efflux ratio [10]: 0.9
- Kp at 3 h [11]: > 0.9

Structure (SMILES): COc1ncccc1-c1cnn2ccc(N3CCN(C(=O)OC(C)C)CC3)nc12
- Kp [5]: > 2

Continued, in another order:

- efflux ratio (MDR1 [6]): 3.2
- fCmax [7]: 117 nM
Structure (SMILES): Nc1nccc(-c2c(-c3ccc(F)cc3)ncn2C2CCN(Cc3ccon3)CC2)n1
- Occ (Mus musculus [8]): 88%
- Occ (Mus musculus [9]): 58%

- Kp at 1 h [12]: 0.4
Structure (SMILES): Cc1ccc(C(=O)NNC(=O)c2c(C)cccc2Cl)cc1C#Cc1cnc2ccccc2c1 [VODOBATINIB]

- Kp [13]: 0.3
- Kp at 6 h [16]: 0.42
- Kp at 6 h [17]: 0.46
Structure (SMILES): CC[C@@]12COCCN1c1nc(-n3ccnc3-c3ccccc3)ncc1N(C)C2=O
- inhibition in vivo at 100 mg/kg (Rattus norvegicus [14]): 34.5%
- inhibition in vivo at 200 mg/kg (Rattus norvegicus [15]): 41.4%

- efflux ratio (MDR1 [18]): < 2
Structure (SMILES): CN1C(=O)[C@@H](NC(=O)c2nnc(Cc3ccccc3)o2)COc2cccnc21
